Values of other authors in US20190380992A1 (Biogen MA Inc., priority 2014, published 2019).
Where a name gives a salt, the structure may show the parent alone.

Tests used:
[1] = tested on: multiple sclerosis patients; conditions: compared with placebo after two years of treatment
[2] = tested on: multiple sclerosis patients; conditions: second phase 3 study; glatiramer acetate as active reference
[3] = tested on: patients initiating DMF; conditions: DEFINE and CONFIRM studies

In the case of `COC(=O)/C=C/C(=O)OC` [DMF, dimethyl fumarate], the “accumulation of disability progression” value [1] is given as “significantly reduced”, the clinical relapses [1] is given as “significantly reduced” and the “lesion number and volume” value [1] is given as “significantly reduced”. The “support of the DEFINE findings” value [2] was “findings were supported” and the safety profile [3] was “acceptable safety profile”.
